In patent EP4635500A1, “THERAPEUTIC AGENT FOR BACTERIAL INFECTION” (Sumitomo Pharma Co., Ltd., priority 2022, dated 2024):
Like-named read-outs stand apart in the source and are kept apart here.

Tests used:
53 CRE and CPE strains = assay: MICrange, MIC50, MIC80, MIC90 for 53 bacterial isolates (Example 5, Table 5); type: cell-based
A. baumannii = assay: MIC, broth microdilution, CDC/FDA Antibiotic Resistance Isolate Bank (Example 7, Tables 9, 13, 14); type: cell-based, Acinetobacter baumannii; settings: for MIC: read-out: MIC
P. aeruginosa = assay: MIC, broth microdilution, CDC/FDA Antibiotic Resistance Isolate Bank (Example 7, Tables 10, 15); type: cell-based; settings: for MIC: Pseudomonas aeruginosa, read-out: MIC
[1] = 26 metallo-carbapenemase-producing P. aeruginosa strains, β-lactamase inhibitor µg/mL in parentheses
[2] = 96 strains of P. aeruginosa, β-lactamase inhibitor µg/mL in parentheses

CN(C)c1cc(NC(=O)CNC(C)(C)C)c(O)c2c1C[C@H]1C[C@H]3[C@H](N(C)C)C(O)=C(C(N)=O)C(=O)[C@@]3(O)C(O)=C1C2=O [Tigecycline, tigecycline]
8 µg/mL: MIC (P. aeruginosa; P. aeruginosa KUB No. 5591, AR Bank # 94) | MIC (P. aeruginosa; P. aeruginosa KUB No. 5602, AR Bank # 105) | MIC (P. aeruginosa; P. aeruginosa KUB No. 5605, AR Bank # 108) | MIC (P. aeruginosa; P. aeruginosa KUB No. 5607, AR Bank # 110) | MIC (P. aeruginosa; P. aeruginosa KUB No. 5608, AR Bank # 111)
2 µg/mL: MIC90 (53 CRE and CPE strains; 53 CRE and CPE strains, read-out: MIC90) | MIC90 (53 CRE and CPE strains; 53 bacterial isolates) | MIC (A. baumannii; Acinetobacter baumannii, A. baumannii KUB No. 5575, AR Bank #78, OXA-71) | MIC (A. baumannii; Acinetobacter baumannii, A. baumannii KUB No. 5714, AR Bank #281, OXA-82) | MIC (A. baumannii; Acinetobacter baumannii, KUB No. 5721, AR Bank #288) | MIC (A. baumannii; Acinetobacter baumannii, KUB No. 5726, AR Bank #293) | MIC (A. baumannii; Acinetobacter baumannii, KUB No. 5730, AR Bank #297) | MIC (P. aeruginosa; P. aeruginosa KUB No. 5561, AR Bank # 64) | MIC (P. aeruginosa; P. aeruginosa KUB No. 5587, AR Bank # 90) | MIC (P. aeruginosa; P. aeruginosa KUB No. 5592, AR Bank # 95)
1 - 16 µg(mL): MIC against 26 metallo-carbapenemase-producing strains MICrange (P. aeruginosa; [1])
16 µg/mL: MIC (P. aeruginosa; P. aeruginosa KUB No. 5551, AR Bank # 54) | MIC (P. aeruginosa; P. aeruginosa KUB No. 5597, AR Bank # 100) | MIC (P. aeruginosa; P. aeruginosa KUB No. 5600, AR Bank # 103) | MIC (P. aeruginosa; P. aeruginosa KUB No. 5662, AR Bank # 229)
16 µg(mL): MIC against 26 metallo-carbapenemase-producing strains MIC90 (P. aeruginosa; [1]) | MIC against 96 strains of P. aeruginosa MIC90 (P. aeruginosa; [2])
0.5 µg/mL: MIC50 (53 CRE and CPE strains; 53 bacterial isolates, read-out: MIC50) | MIC (A. baumannii; Acinetobacter baumannii, A. baumannii KUB No. 5580, AR Bank #83, OXA-23, OXA-69, NDM-1) | MIC (A. baumannii; Acinetobacter baumannii, A. baumannii KUB No. 5706, AR Bank #273, OXA-23, OXA-66) | MIC (A. baumannii; Acinetobacter baumannii, A. baumannii KUB No. 5708, AR Bank #275, OXA-23, OXA-66) | MIC (A. baumannii; Acinetobacter baumannii, A. baumannii KUB No. 5711, AR Bank #278, OXA-23, OXA-66) | MIC (A. baumannii; Acinetobacter baumannii, A. baumannii KUB No. 5712, AR Bank #279, OXA-23, OXA-66) | MIC (A. baumannii; Acinetobacter baumannii, A. baumannii KUB No. 5715, AR Bank #282, OXA-23, OXA-66) | MIC (A. baumannii; Acinetobacter baumannii, A. baumannii KUB No. 5717, AR Bank #284, OXA-24, OXA-65) | MIC (A. baumannii; Acinetobacter baumannii, A. baumannii KUB No. 5718, AR Bank #285, OXA-24, OXA-65) | MIC (A. baumannii; Acinetobacter baumannii, KUB No. 5720, AR Bank #287) | MIC (A. baumannii; Acinetobacter baumannii, KUB No. 5723, AR Bank #290) | MIC (A. baumannii; Acinetobacter baumannii, KUB No. 5727, AR Bank #294) | MIC (A. baumannii; Acinetobacter baumannii, KUB No. 5731, AR Bank #298) | MIC (A. baumannii; Acinetobacter baumannii, KUB No. 5733, AR Bank #300) | MIC (A. baumannii; Acinetobacter baumannii, KUB No. 5741, AR Bank #308) | MIC (A. baumannii; Acinetobacter baumannii, KUB No. 5742, AR Bank #309) | MIC (A. baumannii; Acinetobacter baumannii, KUB No. 5744, AR Bank #311) | MIC (A. baumannii; Acinetobacter baumannii, KUB No. 5746, AR Bank #313)
0.12 to 16 µg/mL: MICrange (53 CRE and CPE strains; 53 bacterial isolates)
0.5 - 16 µg(mL): MIC against 96 strains of P. aeruginosa MICrange (P. aeruginosa; [2])
3: Number of isolates at MIC ≤[…] (A. baumannii; MIC distribution, metallo-β-lactamase-producing A. baumannii, inhibitor µg/mL in parentheses)
0.25 to 2 µg/mL: MICrange (A. baumannii; 55 isolates of A. baumannii)
4 µg/mL: MIC (P. aeruginosa; P. aeruginosa KUB No. 579, AR Bank # 447) | MIC (P. aeruginosa; P. aeruginosa KUB No. 5589, AR Bank # 92) | MIC (P. aeruginosa; P. aeruginosa KUB No. 5663, AR Bank # 230)
0.25 µg/mL: MIC (A. baumannii; Acinetobacter baumannii, A. baumannii KUB No. 5567, AR Bank #70, OXA-58, OXA-100) | MIC (A. baumannii; Acinetobacter baumannii, A. baumannii KUB No. 5585, AR Bank #88, OXA-64, NDM-1) | MIC (A. baumannii; Acinetobacter baumannii, KUB No. 5725, AR Bank #292) | MIC (A. baumannii; Acinetobacter baumannii, KUB No. 5738, AR Bank #305) | MIC (A. baumannii; Acinetobacter baumannii, KUB No. 5745, AR Bank #312)
4 µg(mL): MIC against 26 metallo-carbapenemase-producing strains MIC50 (P. aeruginosa; [1]) | MIC against 96 strains of P. aeruginosa MIC50 (P. aeruginosa; [2])
1 µg/mL: MIC80 (53 CRE and CPE strains; 53 bacterial isolates, read-out: MIC80) | MIC (A. baumannii; Acinetobacter baumannii, A. baumannii KUB No. 5598, AR Bank #101, OXA-24, OXA-65) | MIC (A. baumannii; Acinetobacter baumannii, A. baumannii KUB No. 5599, AR Bank #102, OXA-66) | MIC (A. baumannii; Acinetobacter baumannii, A. baumannii KUB No. 5707, AR Bank #274, OXA-66, OXA-72) | MIC (A. baumannii; Acinetobacter baumannii, A. baumannii KUB No. 5709, AR Bank #276, no carbapenemase genes (-)) | MIC (A. baumannii; Acinetobacter baumannii, A. baumannii KUB No. 5710, AR Bank #277, OXA-24, OXA-65) | MIC (A. baumannii; Acinetobacter baumannii, A. baumannii KUB No. 5713, AR Bank #280, OXA-66) | MIC (A. baumannii; Acinetobacter baumannii, A. baumannii KUB No. 5716, AR Bank #283, OXA-23, OXA-66) | MIC (A. baumannii; Acinetobacter baumannii, KUB No. 5719, AR Bank #286) | MIC (A. baumannii; Acinetobacter baumannii, KUB No. 5722, AR Bank #259) | MIC (A. baumannii; Acinetobacter baumannii, KUB No. 5724, AR Bank #291) | MIC (A. baumannii; Acinetobacter baumannii, KUB No. 5728, AR Bank #295) | MIC (A. baumannii; Acinetobacter baumannii, KUB No. 5729, AR Bank #296) | MIC (A. baumannii; Acinetobacter baumannii, KUB No. 5732, AR Bank #299) | MIC (A. baumannii; Acinetobacter baumannii, KUB No. 5734, AR Bank #301) | MIC (A. baumannii; Acinetobacter baumannii, KUB No. 5735, AR Bank #302) | MIC (A. baumannii; Acinetobacter baumannii, KUB No. 5736, AR Bank #303) | MIC (A. baumannii; Acinetobacter baumannii, KUB No. 5737, AR Bank #304) | MIC (A. baumannii; Acinetobacter baumannii, KUB No. 5739, AR Bank #306) | MIC (A. baumannii; Acinetobacter baumannii, KUB No. 5740, AR Bank #307) | MIC (A. baumannii; Acinetobacter baumannii, KUB No. 5743, AR Bank #310) | MIC50 (A. baumannii; Acinetobacter baumannii, 55 isolates of A. baumannii, read-out: MIC50) | MIC80 (A. baumannii; Acinetobacter baumannii, 55 isolates of A. baumannii, read-out: MIC80) | MIC90 (A. baumannii; Acinetobacter baumannii, 55 isolates of A. baumannii, read-out: MIC90)
